Results as given in patent US9102688B2, “Sulfonaminoquinoline hepcidin antagonists” (Vifor (International) AG, priority 2011, dated 2015).
pIC50: −log10 of the molar value.

target: T1, human ferroportin (Homo sapiens, UniProt Q9NP59); experiment: ferroportin internalization assay (inhibition of hepcidin-induced internalization of Fpn); assay type: cell-based; conditions: MDCK-FPN-HaloTag cells, 100 nM hepcidin, overnight incubation; concentration range from 0.04 to 40 μM
T1 construct: expressed in transfected cells
T1 sequence (Q9NP59 1-571): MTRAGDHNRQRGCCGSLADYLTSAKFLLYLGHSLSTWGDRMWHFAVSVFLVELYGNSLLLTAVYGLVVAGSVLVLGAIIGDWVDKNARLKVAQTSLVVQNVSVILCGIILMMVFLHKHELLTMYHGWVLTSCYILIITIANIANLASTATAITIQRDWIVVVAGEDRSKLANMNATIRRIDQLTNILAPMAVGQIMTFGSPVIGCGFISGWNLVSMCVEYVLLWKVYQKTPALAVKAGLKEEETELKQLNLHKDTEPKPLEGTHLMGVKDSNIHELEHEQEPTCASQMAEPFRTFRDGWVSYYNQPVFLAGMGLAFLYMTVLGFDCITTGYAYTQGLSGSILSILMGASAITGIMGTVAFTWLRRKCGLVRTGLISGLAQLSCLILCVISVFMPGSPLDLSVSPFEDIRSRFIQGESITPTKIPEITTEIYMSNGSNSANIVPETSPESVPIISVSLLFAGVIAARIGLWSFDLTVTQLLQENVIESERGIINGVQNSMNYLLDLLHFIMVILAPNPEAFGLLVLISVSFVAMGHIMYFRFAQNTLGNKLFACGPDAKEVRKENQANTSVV
Procedure, shortened: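 MDCK cells stably expressing human ferroportin–HaloTag were labelled with TMR ligand, then incubated overnight at 37 °C with compound plus 100 nM hepcidin (final). After fixation and nuclear staining, confocal imaging quantified membrane Fpn fluorescence to measure blocking of hepcidin-induced internalization.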

| pIC50 | Compound |
| --- | --- |
| 5.82 | COc1cccc(S(=O)(=O)Nc2cccc3cccnc23)c1 [Example 21, 3-Methoxy-N-quinolin-8-yl-benzenesulfonamide] |
| 5.59 | N#Cc1ccc(S(=O)(=O)Nc2ccc(C(F)(F)F)c3cccnc23)cn1 [Example 240, 6-Cyano-pyridine-3-sulfonic acid (5-trifluoromethyl-quinolin-8-yl)-amide] |
| 5.60 | O=S(=O)(Nc1cccc2cccnc12)c1ccccc1OC(F)(F)F [Example 36, N-Quinolin-8-yl-2-trifluoromethoxy-benzenesulfonamide] |
| 6.47 | CN1C(c2ccc(F)cc2)c2ccc3cccnc3c2NS1(=O)=O (centres unmarked) [Example 382, 1-(4-Fluoro-phenyl)-2-methyl-1,4-dihydro-2H-3-thia-2,4,5-triaza-phenanthrene 3,3-dioxide] |
| 6.06 | O=S(=O)(Nc1cccc2cccnc12)c1ccc(Cl)cc1F [Example 42, 4-Chloro-2-fluoro-N-quinolin-8-yl-benzenesulfonamide] |
| 5.94 | CN1C(c2ccc(OC(F)(F)F)cc2)c2ccc3cccnc3c2NS1(=O)=O (centres unmarked) [Example 393, 2-Methyl-1-(4-trifluoromethoxy-phenyl)-1,4-dihydro-2H-3-thia-2,4,5-triaza-phenanthrene 3,3-dioxide] |
| 5.80 | CN1C(c2ccncc2F)c2ccc3cccnc3c2NS1(=O)=O (centres unmarked) [Example 387, 1-(3-Fluoro-pyridin-4-yl)-2-methyl-1,4-dihydro-2H-3-thia-2,4,5-triaza-phenanthrene 3,3-dioxide] |
| 6.01 | O=S(=O)(Nc1ccc(F)c2cccnc12)c1ccccc1 [Example 98, N-(5-Fluoro-quinolin-8-yl)-benzenesulfonamide] |
| 6.06 | CN1C(c2ccccc2)c2ccc3cccnc3c2NS1(=O)=O (centres unmarked) [Example 115, 2-Methyl-1-phenyl-1,4-dihydro-2H-3-thia-2,4,5-triaza-phenanthrene 3,3-dioxide] |
| 4.90 | O=S1(=O)Nc2c(ccc3c(Cl)ccnc23)-c2ccccc21 [Example 305, 1-Chloro-5H-6-thia-4,5-diaza-chrysene 6,6-dioxide] |
| 4.90 | CN1C(c2ccc(F)cc2)c2cc(Cl)c3cccnc3c2NS1(=O)=O (centres unmarked) [Example 401, 9-Chloro-1-(4-fluoro-phenyl)-2-methyl-1,4-dihydro-2H-3-thia-2,4,5-triaza-phenanthrene 3,3-dioxide] |
| 6.42 | Cc1ccc(S(=O)(=O)Nc2cccc3cccnc23)nc1 [Example 227, 5-Methyl-pyridine-2-sulfonic acid quinolin-8-ylamide] |
| 5.66 | Cc1cc(NS(=O)(=O)c2ccccc2)c2ncccc2c1 [Example 77, N-(6-Methyl-quinolin-8-yl)-benzenesulfonamide] |
| 6.34 | O=S1(=O)Nc2c(ccc3cccnc23)CN1c1ccccc1 [Example 113, 2-Phenyl-1,4-dihydro-2H-3-thia-2,4,5-triaza-phenanthrene 3,3-dioxide] |
| 4.90 | O=S(=O)(Nc1cc(OC(F)(F)F)cc2cccnc12)c1ccc(C(F)(F)F)nc1 [Example 232, 6-Trifluoromethyl-pyridine-3-sulfonic acid (6-trifluoromethoxy-quinolin-8-yl)-amide] |
| 5.91 | Cc1ccc(S(=O)(=O)Nc2ccc(Cl)c3cccnc23)c(N)c1 [Example 79, 2-Amino-N-(5-chloro-quinolin-8-yl)-4-methyl-benzenesulfonamide] |
| 5.81 | O=S1(=O)Nc2c(cc(N3CCCCC3)c3cccnc23)-c2ccccc21 [Example 551, 12-Piperidin-1-yl-5H-6-thia-4,5-diaza-chrysene 6,6-dioxide] |
| 5.79 | O=S1(=O)Nc2c(ccc3cccnc23)-c2ccc(F)cc21 [Example 330, 8-Fluoro-5H-6-thia-4,5-diaza-chrysene 6,6-dioxide] |
| 5.34 | O=S(=O)(Nc1cccc2cccnc12)c1nccs1 [Example 231, Thiazole-2-sulfonic acid quinolin-8-ylamide] |
| 5.96 | Cc1ccc(NS(=O)(=O)c2ccccc2)c2ncccc12 [Example 90, N-(5-Methyl-quinolin-8-yl)-benzenesulfonamide] |
